Laboratory results reported in patent US11458153B2, “Drug delivery composition comprising a self-assembled gelator” (The Brigham and Women's Hospital, Inc., priority 2008, dated 2022).

Biological target: T1, lipase (Lipolase 100L, Type EX) (Thermomyces lanuginosus, UniProt O59952)
T1 construct: purchased Novozymes through Brenntag North America Lipolase 100L, Type EX
T1 sequence (O59952 23-291): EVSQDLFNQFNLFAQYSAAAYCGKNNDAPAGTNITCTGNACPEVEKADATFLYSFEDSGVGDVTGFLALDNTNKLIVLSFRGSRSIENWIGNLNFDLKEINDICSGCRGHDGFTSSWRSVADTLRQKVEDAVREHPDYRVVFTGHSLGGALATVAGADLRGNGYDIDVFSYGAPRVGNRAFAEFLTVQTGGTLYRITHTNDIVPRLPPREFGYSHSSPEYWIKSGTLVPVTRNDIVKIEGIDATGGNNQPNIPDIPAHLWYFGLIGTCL
Assay: Enzyme-triggered hydrogel degradation and drug release
Format: in vitro ADME
Procedure: Encapsulation and release of curcumin was previously studied by the Ultra-Violet absorbance spectroscopy (λmax at 424 nm). Absorbance spectrum of modified Apn-7-COOH was similar to that of Apn (FIG. 6B). In this instance, enzyme-triggered single and multiple drug delivery has been carried out using two sets of hydrogel samples, i.e., hydrogels of Apn-7-COOH and Apn-8-Apn with and without curcumin. In the first set, lipase (Lipolase 100L, Type EX, lipase units 100 KLU/g) was added to the preformed hydrogel of Apn-7-COOH (2 wt %) and kept it at 37° C. which is lower than gel melting temperature. It was anticipated that lipase (esterase) would hydrolyze the ester bond of prodrug-based gelator (Apn-7-COOH) to release acetaminophen and dicarboxylic acid as the hydrogel degrades. As expected, after 48 hours the gel completely degraded and became a clear solution.
To test this further, and examine multiple (two) drugs delivery (FIGS. 6A-6E), curcumin was encapsulated in the hydrogel of Apn-7-COOH (2 wt %) and to that lipase was added and kept it at 37° C. Absorbance spectra were recorded on aliquots which were collected (after the addition of enzyme to the hydrogel) at regular intervals (FIG. 6C). […] The concentration of the enzyme used in these in vitro experiments is higher than physiological concentration of esterases (for example, physiological concentration of cholesterol esterase is 7 U/ml).
Increasing either concentration of enzyme or incubation temperature to 45° C. doubles the drug release rate, which was correlating with previous findings.
To analyze the gel degradation mechanism, another prodrug Apn-5-ether-COOH was synthesized (FIG. 2), where hydrocarbon chain (which is bearing terminal carboxylic acid) was connected to the acetaminophen through an ether bond (C—O—C) to prevent the esterolytic cleavage by lipase.

SMILES: CC(=O)Nc1ccc(OC(=O)CCCCCCC(=O)O)cc1 [Apn-7-COOH]
- time after which absorbance of released curcumin did not increase (curcumin released from degradation of hydrogel): 24 h
- time of first aliquots showing curcumin absorption maxima (425 nm) (curcumin-encapsulated hydrogel 2 wt %, lipase, 37° C.): 4 h
- burst release of curcumin (curcumin-encapsulated hydrogel 2 wt %, lipase, 37° C., absorbance maxima vs time): absence of burst release
- products found by thin-layer chromatography after gel degradation (hydrogel 2 wt %, lipase, 37° C., 48 hours): acetaminophen and α,ω-dicarboxylicacid were generated
- time after which the gel completely degraded (preformed hydrogel 2 wt %, lipase added, 37° C.): 48 h
